Data on 13 molecules can be found in patent US12077503B2, “Substituted cyclic amides and their use as herbicides” (FMC CORPORATION, priority 2015, dated 2024).

SMILES strings stand for the structures.

In series [1] the test system is green foxtail (Setaria viridis). Briefly: Test A preemergence. It counts as in vivo. The settings on record: for Foxtail, Green plant response rating: 0 to 100 scale where 0 is no effect and 100 is complete control. The procedure, abridged:
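Ratings of 0 (no effect) to 100 (complete control) come from visual comparison with untreated controls roughly 10 d after treatment. Test chemicals, formulated in a non-phytotoxic solvent mixture with surfactant, were applied either as a preemergence directed soil spray on seeded soil or postemergence to one- to two-leaf plants 2 to 10 cm tall.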

The subject of series [2] is lambsquarters (Chenopodium album). Briefly: Test C preemergence. The following applies: for Plant response rating, Lambsquarters: scale 0 to 100, 0 no effect, 100 complete control. It counts as in vivo. The procedure, abridged: (§1)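 Greenhouse test: seeds in a loam and sand blend treated preemergence, or seedlings at the 1- to 4-leaf stage (2 to 18 cm) in a peat, vermiculite and limestone mix treated postemergence, with test chemicals in a surfactant-containing non-phytotoxic solvent. Scored by eye at 13 to 15 d relative to controls, 0 (no effect) to 100 (complete control).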

Series [3] concerns Galium (catchweed bedstraw, Galium aparine). Put plainly: Test C preemergence. It counts as in vivo. The following applies: for Plant response rating, Galium: scale 0 to 100, 0 no effect, 100 complete control. The method in brief: as §1
Series [4] has as its system barnyardgrass (Echinochloa crus-galli). Put plainly: Test C preemergence. It counts as in vivo. The settings on record: for Plant response rating, Barnyardgrass: scale 0 to 100, 0 no effect, 100 complete control. The procedure, abridged: as §1
In another series the test system is soybean (Glycine max). Put plainly: Test C preemergence. It counts as in vivo. The settings on record: for Plant response rating, Soybean: scale 0 to 100, 0 no effect, 100 complete control. The method in brief: as §1
In series [5] the test system is oilseed rape (Brassica napus). Briefly: Test C preemergence. The series is classed as in vivo. The following applies: for Plant response rating, Oilseed Rape: scale 0 to 100, 0 no effect, 100 complete control. The method in brief: as §1
Series [6] deals with ragweed (common ragweed, Ambrosia elatior). Briefly: Test C preemergence. The series is classed as in vivo. The settings on record: for Plant response rating, Ragweed: scale 0 to 100, 0 no effect, 100 complete control. The procedure, abridged:
as §1

The subject of series [7] is johnsongrass (Sorghum halepense). Put plainly: Test C preemergence. It counts as in vivo. The following applies: for Plant response rating, Johnsongrass: scale 0 to 100, 0 no effect, 100 complete control. The method in brief: as §1
The test system of series [8] is foxtail, giant (giant foxtail, Setaria faberii). Put plainly: Test C preemergence. The series is classed as in vivo. The settings on record: for Plant response rating, Foxtail, Giant: scale 0 to 100, 0 no effect, 100 complete control. The procedure, abridged:
as §1

Series [9] has as its system wheat (winter wheat, Triticum aestivum). Briefly: Test C preemergence. The series is classed as in vivo. The following applies: for Plant response rating, Wheat: scale 0 to 100, 0 no effect, 100 complete control. The method in brief: as §1
Series [10] has as its system velvetleaf (Abutilon theophrasti). Briefly: Test C preemergence. The series is classed as in vivo. The following applies: for Plant response rating, Velvetleaf: scale 0 to 100, 0 no effect, 100 complete control. The procedure, abridged: as §1
The next series concerns corn (Zea mays). Briefly: Test C preemergence. The series is classed as in vivo. The following applies: for Plant response rating, Corn: scale 0 to 100, 0 no effect, 100 complete control. The procedure, abridged: as §1
Series [11] concerns waterhemp (common waterhemp, Amaranthus rudis). Put plainly: Test C preemergence. It counts as in vivo. The settings on record: for Plant response rating, Waterhemp: scale 0 to 100, 0 no effect, 100 complete control. The procedure, abridged:
as §1

For series [12], the system named is ryegrass, Italian (Italian ryegrass, Lolium multiflorum). Briefly: Test C preemergence. The series is classed as in vivo. The settings on record: for Plant response rating, Ryegrass, Italian: scale 0 to 100, 0 no effect, 100 complete control. The procedure, abridged:
as §1

Series [13] has as its system morningglory (Ipomoea coccinea). Put plainly: Test C preemergence. It counts as in vivo. The following applies: for Plant response rating, Morningglory: scale 0 to 100, 0 no effect, 100 complete control. The method in brief: as §1
Series [14] deals with pigweed (Amaranthus retroflexus). Put plainly: Test C preemergence. It counts as in vivo. The settings on record: for Plant response rating, Pigweed: scale 0 to 100, 0 no effect, 100 complete control. The method in brief:
as §1

In series [15] the test system is crabgrass, large (large crabgrass, Digitaria sanguinalis). Put plainly: Test C preemergence. It counts as in vivo. The settings on record: for Plant response rating, Crabgrass, Large: scale 0 to 100, 0 no effect, 100 complete control. The method in brief:
as §1

In series [16] the test system is nutsedge, yellow (yellow nutsedge, Cyperus esculentus). Briefly: Test C preemergence. The series is classed as in vivo. The following applies: for Plant response rating, Nutsedge, Yellow: scale 0 to 100, 0 no effect, 100 complete control. The procedure, abridged: as §1
The mark [17] stands for this setting: 125 g ai/ha, preemergence, approx. 10 d.
Where [18] appears, read: 31 g ai/ha, 0 is no effect, 100 is complete control.

`O=C1NC[C@H](c2ccc(C(F)(F)F)cn2)[C@H]1C(=O)Nc1ccc(F)c(F)c1F` [Compound 1105]: the melting point lay within 173 to 176 °C.

On to `COc1cccc([C@H]2CN(C)C(=O)[C@@H]2C(=O)Nc2ccc(F)c(F)c2F)c1` [Compound 1063], for which the “Foxtail, Green plant response rating” value stood at 100 in series [1] (31 g ai/ha, Preemergence) and 100 in series [1] (setting [17]).

Consider `COc1ccc([C@H]2CN(C)C(=O)[C@@H]2C(=O)Nc2ccccc2F)cc1` [Compound 1342], for which the melting point lay in the range of 103 to 107 °C.

`CSc1ccccc1NC(=O)[C@H]1C(=O)NC[C@@H]1c1ccc(C(F)(F)F)cn1` [Compound 1050] returned a melting point of 66 to 70 °C.

Turning to `COc1cccc([C@H]2CNC(=O)[C@@H]2C(=O)Nc2cccc(F)c2F)c1F` [Compound 1061], the melting point lay within 161 to 165 °C.

The molecule `CN1C[C@H](c2cc(Cl)cc(Cl)c2)[C@@H](C(=O)Nc2cccc(F)c2F)C1=O` [Compound 1270] displayed a melting point of 88 to 92 °C.

`CN1C[C@H](c2ccc(C(F)(F)F)cc2)[C@@H](C(=O)Nc2ccccc2Br)C1=O` [Compound 943]: the melting point is 104 to 107 °C.

Take `COc1cccc([C@H]2CN(C)C(=O)[C@@H]2C(=O)Nc2cccc(F)c2F)c1` [Compound 1062]: the “Foxtail, Green plant response rating” value in series [1] (31 g ai/ha, Preemergence) was 100; in [1] (setting [17]) it was 100.

As for `C=C(C)c1ccc([C@H]2CN(C)C(=O)[C@@H]2C(=O)Nc2cccc(F)c2C)cc1` [Compound 1150], the melting point lay within 137 to 141 °C.

In the case of `O=C1NC[C@H](c2cc(Cl)cc(Cl)c2)[C@H]1C(=O)Nc1cccc(F)c1F` [Compound 1273], the melting point lay within 136 to 140 °C.

For `CN1C[C@H](c2ccc(C(F)(F)F)cn2)[C@@H](C(=O)Nc2cccc(F)c2F)C1=O` [Compound 1052], the melting point lay within 120 to 124 °C.

For the molecule `CN1C[C@H](c2csc3c2CCC(F)(F)C3)[C@@H](C(=O)Nc2ccccc2S(C)(=O)=O)C1=O` (racemic) [Compound 1367], the “Foxtail, Green plant response rating” value in series [1] (31 g ai/ha, Preemergence) is on record as 0. Also, the “Plant response rating, Foxtail, Green” value in series [1] (Preemergence, 125 g ai/ha, 0 to 100 scale (0 no effect, 100 complete control)) stood at 60.

`CN1CC(c2ccc(F)c(C(F)(F)F)c2)C(C(=O)Nc2cccc(F)c2F)C1=O` (centres unmarked) [Compound 613]: in [2] (setting [18]), the “Plant response rating (scale of 0 to 100), Lambsquarters” value is 25. In addition, the “Plant response rating, Lambsquarters” value in [2] (62 g ai/ha) came out at 60; in [2] (125 g ai/ha), 50; in series [2] (250 g ai/ha) it was 75. Besides, in [3] (setting [18]), the “Plant response rating (scale of 0 to 100), Galium” value was found to be 90. Also, the “Plant response rating, Galium” value in series [3] (62 g ai/ha), in series [3] (125 g ai/ha) and in series [3] (250 g ai/ha) was 90 each time. Besides, the “Plant response rating (scale of 0 to 100), Barnyardgrass” value in series [4] (setting [18]) is on record as 90. Further, the “Plant response rating, Barnyardgrass” value worked out at 95 in series [4] (62 g ai/ha), 95 in [4] (125 g ai/ha) and 98 in series [4] (250 g ai/ha). Moreover, the “Plant response rating (scale of 0 to 100), Soybean” value with soybean (Glycine max) (setting [18]) is reported as 0. Further, the “Plant response rating, Soybean” value in the series on soybean (Glycine max) (62 g ai/ha), with soybean (Glycine max) (125 g ai/ha) and in the series with soybean (Glycine max) (250 g ai/ha) was 0 in each case. In addition, the “Plant response rating (scale of 0 to 100), Oilseed Rape” value in series [5] (setting [18]) was determined as 15. For the same molecule, the “Plant response rating, Oilseed Rape” value in [5] (62 g ai/ha) worked out at 70; in [5] (125 g ai/ha) it was 90; in series [5] (250 g ai/ha), 90. The “Plant response rating (scale of 0 to 100), Ragweed” value in [6] (setting [18]) is on record as 25. Further, the “Plant response rating, Ragweed” value is 25 in series [6] (62 g ai/ha), 40 in series [6] (125 g ai/ha) and 65 in series [6] (250 g ai/ha). The “Plant response rating (scale of 0 to 100), Johnsongrass” value in series [7] (setting [18]) came to 75. In addition, the entries for the “Plant response rating, Johnsongrass” value in [7] (62 g ai/ha), in series [7] (125 g ai/ha) and in series [7] (250 g ai/ha) were 85, 90 and 90, respectively. In addition, in [8] (setting [18]), the “Plant response rating (scale of 0 to 100), Foxtail, Giant” value is given as 95. Also, the figures for the “Plant response rating, Foxtail, Giant” value in series [8] (62 g ai/ha), in series [8] (125 g ai/ha) and in series [8] (250 g ai/ha) were 95, 95 and 98, respectively. Besides, the “Plant response rating (scale of 0 to 100), Wheat” value in series [9] (setting [18]) is recorded as 25. The results for the “Plant response rating, Wheat” value in series [9] (62 g ai/ha), in [9] (125 g ai/ha) and in [9] (250 g ai/ha) were 45, 65 and 70, respectively. Further, the “Plant response rating (scale of 0 to 100), Velvetleaf” value in [10] (setting [18]) came out at 30. For the same molecule, the “Plant response rating, Velvetleaf” value is 40 in series [10] (62 g ai/ha), 40 in series [10] (125 g ai/ha) and 70 in [10] (250 g ai/ha). Besides, the “Plant response rating (scale of 0 to 100), Corn” value with corn (Zea mays) (setting [18]) amounted to 40. Moreover, the “Plant response rating, Corn” value with corn (Zea mays) (62 g ai/ha) stood at 55; with corn (Zea mays) (125 g ai/ha), 65; in the series on corn (Zea mays) (250 g ai/ha) it was 85. Also, the “Plant response rating (scale of 0 to 100), Waterhemp” value in series [11] (setting [18]) amounted to 70. Moreover, the “Plant response rating, Waterhemp” value in [11] (62 g ai/ha) turned out to be 75; in series [11] (125 g ai/ha), 85; in [11] (250 g ai/ha) it was 90. Also, the “Plant response rating (scale of 0 to 100), Ryegrass, Italian” value in series [12] (setting [18]) amounted to 10. Moreover, the “Plant response rating, Ryegrass, Italian” value turned out to be 25 in series [12] (62 g ai/ha), 75 in [12] (125 g ai/ha) and 95 in series [12] (250 g ai/ha). Also, the “Plant response rating (scale of 0 to 100), Morningglory” value in series [13] (setting [18]) turned out to be 40. The “Plant response rating, Morningglory” value in series [13] (62 g ai/ha) was determined as 40; in [13] (125 g ai/ha), 55; in [13] (250 g ai/ha), 50. The “Plant response rating (scale of 0 to 100), Pigweed” value in series [14] (setting [18]) is 70. The “Plant response rating, Pigweed” value in [14] (62 g ai/ha) is 80; in series [14] (125 g ai/ha), 85; in series [14] (250 g ai/ha), 90. The “Plant response rating (scale of 0 to 100), Crabgrass, Large” value in [15] (setting [18]) came to 95. Moreover, the “Plant response rating, Crabgrass, Large” value is on record as 95 in [15] (62 g ai/ha), 95 in series [15] (125 g ai/ha) and 98 in [15] (250 g ai/ha). Further, in series [16] (setting [18]), the “Plant response rating (scale of 0 to 100), Nutsedge, Yellow” value was found to be 0. Further, the “Plant response rating, Nutsedge, Yellow” value in [16] (62 g ai/ha) is reported as 0; in [16] (125 g ai/ha) it was 10; in series [16] (250 g ai/ha), 20.

Broadly, the melting point is the temperature, or range, at which the solid turns liquid.
